# “Also recorded” adds a separate entry of the source. Where no end group is shown, it is not given here.
# Key:
# [1] = Experimental solubility and minimum gelation conditions; assay type: physicochemical; conditions: for solubility in sodium phosphate buffer (NaPB): 75 mM sodium phosphate buffer pH 7.4 (also ORAC buffer), 1–15 mM; for peptide concentration at which gelation occurs in NaPB: 75 mM sodium phosphate buffer pH 7.4, room temperature, no DMSO
# [2] = molecular target: T1, angiotensin-I converting enzyme (ACE I) (Oryctolagus cuniculus, UniProt P12822); experiment: ACE I inhibitory activity (cleavage of FA-PGG); assay type: biochemical; conditions: for IC50: linear regression over 7, 8.5 and 10 mg/mL, substrate FA-PGG, three independent replicates, read-out: ACE I inhibition IC50 (converted)
# T1 construct: purchased Sigma Aldrich A6778
# T1 sequence (P12822 34-1310): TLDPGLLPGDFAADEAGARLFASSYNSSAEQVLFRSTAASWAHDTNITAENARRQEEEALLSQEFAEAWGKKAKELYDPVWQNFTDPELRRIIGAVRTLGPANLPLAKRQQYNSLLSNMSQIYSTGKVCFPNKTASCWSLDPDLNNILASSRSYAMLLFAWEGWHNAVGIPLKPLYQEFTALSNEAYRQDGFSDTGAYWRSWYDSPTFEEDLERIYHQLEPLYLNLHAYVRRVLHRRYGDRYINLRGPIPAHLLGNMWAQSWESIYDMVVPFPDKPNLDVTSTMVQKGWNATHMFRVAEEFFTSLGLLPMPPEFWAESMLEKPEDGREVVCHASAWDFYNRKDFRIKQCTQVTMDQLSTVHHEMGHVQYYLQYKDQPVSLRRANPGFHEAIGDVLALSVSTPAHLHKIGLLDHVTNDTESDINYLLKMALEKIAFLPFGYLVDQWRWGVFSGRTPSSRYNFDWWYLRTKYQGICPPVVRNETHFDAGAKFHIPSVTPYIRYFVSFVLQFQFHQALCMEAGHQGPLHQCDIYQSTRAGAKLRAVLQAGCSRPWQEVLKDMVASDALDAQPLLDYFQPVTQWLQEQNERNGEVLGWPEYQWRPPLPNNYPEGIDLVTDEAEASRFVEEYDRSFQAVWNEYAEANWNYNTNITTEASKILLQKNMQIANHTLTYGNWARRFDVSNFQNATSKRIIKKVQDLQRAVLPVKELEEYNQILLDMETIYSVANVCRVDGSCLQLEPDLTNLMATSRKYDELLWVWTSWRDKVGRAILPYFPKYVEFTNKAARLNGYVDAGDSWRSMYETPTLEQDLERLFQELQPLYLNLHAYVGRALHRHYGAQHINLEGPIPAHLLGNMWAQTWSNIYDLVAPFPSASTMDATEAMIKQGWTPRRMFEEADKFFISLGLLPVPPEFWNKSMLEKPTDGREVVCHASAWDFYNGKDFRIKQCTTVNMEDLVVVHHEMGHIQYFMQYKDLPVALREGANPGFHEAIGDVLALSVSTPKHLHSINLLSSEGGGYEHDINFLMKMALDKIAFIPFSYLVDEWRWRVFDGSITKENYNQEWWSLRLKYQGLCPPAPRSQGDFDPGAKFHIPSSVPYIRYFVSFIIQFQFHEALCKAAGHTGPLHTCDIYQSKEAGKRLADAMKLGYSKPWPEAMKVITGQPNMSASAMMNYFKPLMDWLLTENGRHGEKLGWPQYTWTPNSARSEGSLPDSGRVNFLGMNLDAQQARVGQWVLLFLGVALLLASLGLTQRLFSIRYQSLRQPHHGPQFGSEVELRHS
# Experimental: For the angiotensin-I converting enzyme (ACE I) inhibitory activity measurements, the peptides were dissolved as described for the ORAC assay. As the highest possible concentration of the peptides without gel formation was 10 mg/mL and no activity could be detected at 5 mg/mL, the peptides were assessed at 7, 8.5, and 10 mg/mL in three independent replicates. The substrate N-[3-(2-furyl) acryloyl]-L-phenylalanyl-glycylglycine (FA-PGG; Sigma Aldrich F7131) was prepared at 0.88 mM in 50 mM Tris-Cl, pH 7.5, and 0.3 M NaCl. In 96-well plates, 10 µL of the samples and their respective buffers as controls were combined with 10 µL of ACE I (ACE; Sigma Aldrich A6778) at 0.25 U/mL and 150 µL of a preheated substrate solution. The absorbance was continuously measured every minute at 340 nm for 30 min in a Synergy HTX S1LFA plate reader. Linear regression curves were obtained for the decrease in absorbance over time for every sample and the % ACE I inhibition was calculated as:% ACE I inhibition = (1 − (ΔA340 nm protein solution/ΔA340 nm negative control)) × 100
# Captopril was used to verify the functionality of the assay, and a logarithmic inhibition curve was obtained using 340, 34, 17, and 8.5 µM captopril. IC 50 values were calculated for the peptides for which a positive linear regression line could be obtained based on their ACE inhibition (%) at the assessed concentrations.
# [3] = accompanying manufacturer information; ref ProteoGenix SAS; cited from earlier work
# Experimental: The peptide synthesis was carried out using ProteoGenix SAS, (Schiltigheim France), followed by acetate N-terminal blocking and chromatography purification (LC-MS purity chromatograms per peptide are included in the Supplementary Materials). Thus, 1 g of lyophilized powder at 80% or a higher purity (technical grade) in sterile plastic bottles was provided by ProteoGenix for further research. The peptides were stored at −20 °C, opened only prior to the dissolution preparation and ...
Substance,"solubility in Ca2+-containing buffer ([1]; 1 mM peptide, artificial sea water pH 7.7, no DMSO, room temperature, visual)","solubility in sodium phosphate buffer (NaPB) ([1]; room temperature, visual)",peptide concentration at which gelation occurs in NaPB [1],"peptide concentration needed for gelation (minimal gelation conditions) ([1]; Ca2+-containing buffer (artificial sea water, 11 mM Ca2+, pH 7.7), room temperature 21 °C, mix at 1:1:1:1 ratio) [mM]",IC50 [2] [mM],water solubility [3],"inhibition at 10000 µg/mL ([2]; at 10 mg/mL, mean of three replicates) [%]","individual peptide solubility ([1]; both buffers: Ca2+-containing artificial sea water pH 7.7 and 75 mM sodium phosphate buffer pH 7.4, 21 °C, visual, three repetitions)"
Ac-SRPSDPASAVAGEDYTGISRN [Peptide P3],fully soluble,dissolved after gentle agitation without any need for DMSO addition,above 15 mM,15,–,–,–,–
Ac-QNGEYGCVADTPNLLYAFKILDYRQ [Peptide P4],–,dissolved after gentle agitation without any need for DMSO addition,above 15 mM,–,8.96,poor,–,–
Ac-RAGQPITAFLVRD [Peptide P2],–,insoluble; also recorded: insolubility,–,–,4.78,–,75,low
Ac-EMLWLSDGSMGFAEDTDAAFLPGDTIFGRI [Peptide P1],–,dissolved after gentle agitation without any need for DMSO addition,above 15 mM,–,–,poor,–,–

# From PMC12026874, “Microstructure of Sea Cucumber Parastichopus tremulus Peptide Hydrogels and Bioactivity in Caco-2 Cell Culture Model” (Gels, 2025)
